Data published in article PMC11742280, “A phase I study of MLN4924 and belinostat in relapsed/refractory acute myeloid leukemia or myelodysplastic syndrome” (Cancer Chemotherapy and Pharmacology, 2025).
Where two headings read alike, the source gives them in different places.

Assays:
[1] = parameters: method as in PMID 31097586, PMID 33441097; details: e.g. value, compared with clinical Cmax; cited from earlier work
[2] = test system: xenograft models of solid tumors, lymphoma, and AML; parameters: method as in PMID 20203261, PMID 20525923, PMID 23633453, PMID 22562464; details: cited from earlier work
[3] = test system: high-risk MDS; parameters: method as in PMID 35728048; details: pevonedistat 20 mg/m^2 D1,3,5 in combination with azacitidine; subset with high-risk MDS, post-hoc analysis, non-statistically significant improvement; cited from earlier work
[4] = test system: AML; parameters: method as in PMID 25733005; details: cited from earlier work
[5] = Plasma pharmacokinetics of pevonedistat (LC/MS/MS, noncompartmental analysis); format: in vivo, human; details: for Cmax: read-out: preEOI Cmax (peak plasma concentration); for clearance: read-out: Cl (systemic clearance) (converted)
Description: Plasma was stored at − 80 °C until analysis.
Pharmacokinetic parameters were summarized using descriptive statistics.

[6] = cycle 1 day 1, dose level 1, pevonedistat 20 mg/m^2 IV (belinostat 800 mg/m^2), n=2, actual values
[7] = human, plasma, iv, 37 mg/m2, cycle 1 day 1, pevonedistat 37 mg/m^2 IV, all 37 mg/m^2 patients (dose levels 3-4), mean±SD, n=6
[8] = human, plasma, iv, cycle 1 day 1, dose level 1, pevonedistat 20 mg/m^2 IV (belinostat 800 mg/m^2), n=2, actual values
[9] = human, plasma, iv, cycle 1 day 1, dose level 2, pevonedistat 25 mg/m^2 IV (belinostat 800 mg/m^2), mean±SD, n=3
[10] = human, plasma, iv, cycle 1 day 1, dose level 3, pevonedistat 37 mg/m^2 IV (belinostat 800 mg/m^2), mean±SD, n=3
[11] = human, plasma, iv, cycle 1 day 1, dose level 4, pevonedistat 37 mg/m^2 IV (belinostat 1000 mg/m^2), mean±SD, n=3

NS(=O)(=O)OC[C@@H]1C[C@@H](n2ccc3c(N[C@H]4CCc5ccccc54)ncnc32)C[C@@H]1O [Pevonedistat]
Concentrations shown to exert activity in preclinical studies [1]: 100 to 200 nM | Effect on tumor growth [2]: inhibition of tumor growth | Survival [3]: 23.8 mos | Complete remission (CR) + partial remission (PR) ([4]; single agent in AML): 17% | Maximum Tolerated Dose ([4]; single agent, D1,3,5 dosing schedule in a 21-day cycle): 59 mg/m^2 | Pevonedistat AUCINF by BSA-based dose ([5]; 37 mg/m^2 compared with 20 or 25 mg/m^2, p = 0.02, Kruskal–Wallis): significantly higher | AUCINF [5, 6]: 2.85 µM·h | Cl (systemic clearance) [5, 6]: 28.5 L/h | T1/2 [5, 6]: 6.12 h | Cmax [5, 6]: 311 nM | Cl (systemic clearance) ([5]; cycle 1 day 1, dose level 3, pevonedistat 37 mg/m^2 IV (belinostat 800 mg/m^2), mean±SD, n=3): 34.9 ± 2.9 (3) L/hr | Cl (systemic clearance) ([5]; cycle 1 day 1, dose level 4, pevonedistat 37 mg/m^2 IV (belinostat 1000 mg/m^2), mean±SD, n=3): 35.5 ± 8.3 (3) L/hr | Cl (systemic clearance) ([5]; cycle 1 day 1, pevonedistat 37 mg/m^2 IV, all 37 mg/m^2 patients (dose levels 3-4), mean±SD, n=6): 35.2 ± 5.6 (6) L/hr | Pharmacokinetic parameters compared between dose levels ([5]; dose levels 1-4, Kruskal–Wallis): not different by dose level | AUC(0-inf) [5, 7]: 4.78 ± 0.958 µM·h | half-life [5, 7]: 5.79 ± 0.99 h | Cmax [5, 7]: 869 ± 290 nM | Tmax ([5]; human, plasma, iv, 37 mg/m2, cycle 1 day 1, pevonedistat 37 mg/m^2 IV, all 37 mg/m^2 patients (dose levels 3-4), median (range; n)): 0.9 h | AUC(0-inf) [5, 8]: 2.28 µM·h | Tmax [5, 8]: 0.4 h | half-life [5, 8]: 5.89 h | clearance [5, 8]: 627 mL/min | Cmax [5, 8]: 278 nM | AUC(0-inf) [5, 9]: 2.95 ± 0.666 µM·h | half-life [5, 9]: 6.52 ± 1.38 h | clearance [5, 9]: 625 mL/min | Cmax [5, 9]: 372 ± 93.2 nM | Tmax ([5]; human, plasma, iv, cycle 1 day 1, dose level 2, pevonedistat 25 mg/m^2 IV (belinostat 800 mg/m^2), median (range; n)): 0.6 h | AUC(0-inf) [5, 10]: 4.95 ± 0.426 µM·h | half-life [5, 10]: 5.97 ± 0.34 h | Cmax [5, 10]: 897 ± 26 nM | Tmax ([5]; human, plasma, iv, cycle 1 day 1, dose level 3, pevonedistat 37 mg/m^2 IV (belinostat 800 mg/m^2), median (range; n)): 0.9 h | AUC(0-inf) [5, 11]: 4.6 ± 1.42 µM·h | half-life [5, 11]: 5.61 ± 1.5 h | Cmax [5, 11]: 841 ± 455 nM | Tmax ([5]; human, plasma, iv, cycle 1 day 1, dose level 4, pevonedistat 37 mg/m^2 IV (belinostat 1000 mg/m^2), median (range; n)): 1 h
